From EP4768499A1, “MACROCYCLIC PEPTIDE COMPOUND HAVING CELL MEMBRANE PERMEABILITY AND METABOLIC STABILITY, AND LIBRARY CONTAINING SAME” (Chugai Seiyaku Kabushiki Kaisha, priority 2023, dated 2025)
Read-outs that look alike come from different tables or passages of the source. Starred links: 1 amine or outer side, 2 acyl side, 3 side chain; linkers in the order of their positions; H or OH if unused. Positions of bridges follow the written chain, without caps; N, C: chain ends. Non-standard residues stand in square brackets, D forms with d. Residues, ends and D or L forms follow the SMILES beside them. *: point of attachment. NMedβ3hAla = C[C@H](CC(=O)[*:2])N(C)[*:1]; NMeF = CN[C@@H](Cc1ccccc1)C(=O)O; NMeGABA = CN(CCCC(=O)[*:2])[*:1]; NMeI = CC[C@H](C)[C@H](NC)C(=O)O; NMeT = CN[C@H](C(=O)O)[C@@H](C)O; hPhe = N[C@@H](CCc1ccccc1)C(=O)O; NMeβAla = CN(CCC(=O)[*:2])[*:1]; NMeD = CN[C@@H](CC(=O)O)C(=O)O; NMeL = CN[C@@H](CC(C)C)C(=O)O; NMeV = CN[C@H](C(=O)O)C(C)C; d(β3hA) = C[C@@H](N)CC(=O)O; NMeAbu = CC[C@H](NC)C(=O)O; NMeA = CN[C@@H](C)C(=O)O; Piperidide = C1CCN(*)CC1; dNMeA = CN[C@H](C)C(=O)O; Abu = CC[C@H](N)C(=O)O; βAla = NCCC(=O)O; Sar = CNCC(=O)O; tBu = CC(C)(C)*

How the values were obtained:
[1] = Metabolic stability test: liver microsomal stability assay; format: in vitro ADME, mouse; conditions: for microsomal CLint at 1 µM: male, pH 7.4, presence of NADPH, read-out: Mouse Hepatic Microsome CLh,int NADPH(+)
Caco-2 cells = experiment: Membrane permeability test using Caco-2 cells with preincubation; format: in vitro ADME
[2] = as above; format: in vitro ADME; conditions: Caco-2
[3] = mouse liver microsomes 0.5 mg protein/mL, compound 1 µM
[4] = mouse liver microsomes 0.5 mg protein/mL, compound 1 µM, absence of NADPH
[5] = Caco-2 cells, preincubation 20 to 24 hours, apical FaSSIF/HBSS 1% DMSO pH 6.0, basal HBSS 4% BSA pH 7.4, basal sample at 180 minutes
[6] = preincubation 20 to 24 hours, Apical FaSSIF/HBSS pH 6.0, Basal HBSS 4% BSA pH 7.4, 180 minutes, read-out: Caco2 Papp

microsomal CLint at 1 µM [1, 3]	Mouse Hepatic Microsome CLh,int NADPH(-) [1, 4]	Caco2 Papp (10^-6 cm/sec) (Caco-2 cells; [5])	Papp A→B [2, 6]	Mouse Hepatic Microsome CLh,int NADPH(-) [1]	Caco2 Papp (10^-6 cm/sec) (Caco-2 cells; Caco-2)	Papp A→B [2]	SMILES
32.3 µL/min/mg	28.2 µL/min/mg Protein	1.24 10^-6 cm/sec	1.24 ×10⁻⁶ cm/s				CC[C@H](C)[C@@H]1NC(=O)[C@H](CC(C)C)N(C)C(=O)C[C@@H](C)NC(=O)[C@H](C(C)C)N(C)C(=O)[C@H](COC(C)(C)C)NC(=O)[C@H](CC)N(C)C(=O)[C@H](Cc2ccccc2)N(C)C(=O)[C@H](CC(C)C)NC(=O)[C@@H]2CCCN2C(=O)[C@H]([C@@H](C)O)N(C)C(=O)[C@H](CC(C)C)N(C)C(=O)[C@H](CC)N(C)C(=O)[C@H](CC(C)C)N(C)C1=O [pd139] (cyclo(I[NMeL][NMeAbu][NMeL][NMeT]PL[NMeF][NMeAbu]S(tBu)[NMeV][d(β3hA)][NMeL]))
10.5 µL/min/mg	10.3 µL/min/mg Protein	0.31 10^-6 cm/sec	0.31 ×10⁻⁶ cm/s				CC[C@H]1C(=O)N(C)[C@@H](Cc2ccccc2)C(=O)N(C)[C@@H](CC(C)C)C(=O)N[C@@H](CC(C)C)C(=O)N(C)[C@@H](C(C)C)C(=O)N[C@H](C)CC(=O)N(C)CC(=O)N(C)[C@@H](C(C)C)C(=O)N(C)[C@@H](CC(C)C)C(=O)N(C)[C@@H](C)C(=O)N(C)[C@@H](CC(C)C)C(=O)N[C@@H]([C@@H](C)O)C(=O)N(C)CC(=O)N1C [pd140] (cyclo(L[NMeV][d(β3hA)][Sar][NMeV][NMeL][NMeA][NMeL]T[Sar][NMeAbu][NMeF][NMeL]))
31.7 µL/min/mg	33.9 µL/min/mg Protein	0.71 10^-6 cm/sec	0.71 ×10⁻⁶ cm/s				CC[C@H](C)[C@@H]1NC(=O)[C@H](CC(C)C)N(C)C(=O)[C@H](CC(C)C)NC(=O)CCN(C)C(=O)C[C@@H](C)N(C)C(=O)CN(C)C(=O)[C@H](CC(C)C)N(C)C(=O)[C@@H]2CCCN2C(=O)[C@H](CC(C)C)N(C)C(=O)[C@H](COC(C)(C)C)NC(=O)[C@H]([C@@H](C)CC)N(C)C(=O)[C@H](CCc2ccccc2)NC(=O)[C@H](Cc2ccccc2)N(C)C1=O [pd142] (cyclo(I[NMeF][hPhe][NMeI]S(tBu)[NMeL]P[NMeL][Sar][NMedβ3hAla][NMeβAla]L[NMeL]))
39.3 µL/min/mg	21.0 µL/min/mg Protein	4.73 10^-6 cm/sec	4.73 ×10⁻⁶ cm/s				CC[C@H](C)[C@@H]1NC(=O)[C@H](CC(C)C)N(C)C(=O)CCCN(C)C(=O)C[C@@H](C)N(C)C(=O)[C@H](CC(C)C)NC(=O)[C@H](CC)N(C)C(=O)[C@H](C(C)C)N(C)C(=O)[C@H](C)N(C)C(=O)[C@H](CC(C)C)N(C)C(=O)[C@H](COC(C)(C)C)NC(=O)[C@H](Cc2ccccc2)N(C)C(=O)[C@H](Cc2ccccc2)N(C)C(=O)CN(C)C1=O [pd143] (cyclo(I[Sar][NMeF][NMeF]S(tBu)[NMeL][NMeA][NMeV][NMeAbu]L[NMedβ3hAla][NMeGABA][NMeL]))
13.1 µL/min/mg	14.8 µL/min/mg Protein	0.26 10^-6 cm/sec	0.26 ×10⁻⁶ cm/s				CC[C@H]1C(=O)N[C@@H](COC(C)(C)C)C(=O)N(C)[C@@H](C(C)C)C(=O)N(C)[C@@H](C)C(=O)N(C)[C@H](C)CC(=O)N[C@H](C(C)C)C(=O)N(C)[C@@H](CC(C)C)C(=O)N[C@@H](C)C(=O)N(C)[C@@H](C(C)C)C(=O)N(C)[C@@H](CC(C)C)C(=O)NCC(=O)N(C)[C@@H]([C@@H](C)O)C(=O)N(C)[C@@H](Cc2ccccc2)C(=O)N1C [pd147] (cyclo(A[NMeV][NMeL]G[NMeT][NMeF][NMeAbu]S(tBu)[NMeV][NMeA][NMedβ3hAla][dV][NMeL]))

The next lines start with the compound.

SMILES	microsomal CLint at 1 µM [1, 3]	Mouse Hepatic Microsome CLh,int NADPH(-) [1, 4]	Caco2 Papp (10^-6 cm/sec) (Caco-2 cells; [5])	Papp A→B [2, 6]	Mouse Hepatic Microsome CLh,int NADPH(-) [1]	Caco2 Papp (10^-6 cm/sec) (Caco-2 cells; Caco-2)	Papp A→B [2]
CC[C@H](C)[C@@H]1NC(=O)[C@H](C)N(C)C(=O)CCCN(C)C(=O)C[C@@H](C)NC(=O)[C@H](C(C)C)N(C)C(=O)[C@H](CCc2ccccc2)NC(=O)[C@H](C)N(C)C(=O)[C@H]([C@@H](C)O)N(C)C(=O)[C@H](CC(C)C)N(C)C(=O)[C@H](C(C)C)NC(=O)[C@H](Cc2ccccc2)N(C)C(=O)[C@H](C)N(C)C(=O)[C@H](C(C)C)N(C)C1=O [pd137] (cyclo(I[NMeV][NMeA][NMeF]V[NMeL][NMeT][NMeA][hPhe][NMeV][d(β3hA)][NMeGABA][NMeA]))	14.1 µL/min/mg	7.5 µL/min/mg Protein	0.55 10^-6 cm/sec	0.55 ×10⁻⁶ cm/s			
CC[C@H](C)[C@@H]1NC(=O)[C@H](CC(C)C)N(C)C(=O)[C@H](C)N(C)C(=O)[C@H](Cc2ccccc2)N(C)C(=O)[C@@H]2CCCN2C(=O)[C@H](CC(C)C)N(C)C(=O)[C@H](CCc2ccccc2)NC(=O)CCN(C)C(=O)C[C@@H](C)NC(=O)[C@H](CC(C)C)N(C)C(=O)[C@H]([C@@H](C)O)NC(=O)CCN(C)C(=O)[C@H](C(C)C)N(C)C1=O [pd138] (cyclo(I[NMeV][NMeβAla]T[NMeL][d(β3hA)][NMeβAla][hPhe][NMeL]P[NMeF][NMeA][NMeL]))	39.3 µL/min/mg	11.1 µL/min/mg Protein	0.23 10^-6 cm/sec	0.23 ×10⁻⁶ cm/s			
CC[C@H](C)[C@@H]1NC(=O)[C@H](CC(C)C)N(C)C(=O)[C@H](CC(C)C)NC(=O)CCN(C)C(=O)C[C@@H](C)N(C)C(=O)[C@H](CC(C)C)N(C)C(=O)CNC(=O)[C@@H]2CCCN2C(=O)[C@H](CC(C)C)N(C)C(=O)CCNC(=O)[C@H]([C@@H](C)CC)N(C)C(=O)[C@H](CCc2ccccc2)NC(=O)[C@H](Cc2ccccc2)N(C)C1=O [pd141] (cyclo(G[NMeL][NMedβ3hAla][NMeβAla]L[NMeL]I[NMeF][hPhe][NMeI][βAla][NMeL]P))					21.1 µL/min/mg Protein	0.24 10^-6 cm/sec	0.24 ×10⁻⁶ cm/s
CC[C@H](C)[C@@H]1NC(=O)[C@H](C)N(C)C(=O)[C@H]([C@@H](C)O)NC(=O)[C@H](CC(C)C)N(C)C(=O)[C@H](COC(C)(C)C)NC(=O)[C@H](Cc2ccccc2)N(C)C(=O)[C@H]([C@@H](C)CC)NC(=O)CNC(=O)[C@H](Cc2ccccc2)N(C)C(=O)[C@H](CC(C)C)N(C)C(=O)CCCN(C)C(=O)C[C@@H](C)N(C)C(=O)[C@H](CC(C)C)NC1=O [pd145] (cyclo(GI[NMeF]S(tBu)[NMeL]T[NMeA]IL[NMedβ3hAla][NMeGABA][NMeL][NMeF]))	35.5 µL/min/mg	35.7 µL/min/mg Protein	0.05 10^-6 cm/sec	0.05 ×10⁻⁶ cm/s			
CC[C@@H]1NC(=O)[C@H](Cc2ccccc2)N(C)C(=O)[C@@H]2CCCN2C(=O)[C@H](CC(C)C)N(C)C(=O)[C@H](C(C)C)NC(=O)[C@H](CC(C)C)N(C)C(=O)[C@H]([C@@H](C)O)NC(=O)[C@H](Cc2ccccc2)N(C)C(=O)CN(C)C(=O)C[C@@H](C)N(C)C(=O)[C@H](C(C)C)NC(=O)[C@H](COC(C)(C)C)NC(=O)[C@H](C)N(C)C1=O [pd146] (cyclo([Abu][NMeA]S(tBu)V[NMedβ3hAla][Sar][NMeF]T[NMeL]V[NMeL]P[NMeF]))	20.3 µL/min/mg	14.1 µL/min/mg Protein	0.20 10^-6 cm/sec	0.2 ×10⁻⁶ cm/s			
CC[C@H](C)[C@@H]1NC(=O)[C@H](CC(C)C)N(C)C(=O)[C@H](C)N(C)C(=O)[C@H](C)NC(=O)C[C@@H](C)N(C)C(=O)[C@H](CC(C)C)N(C)C(=O)[C@H](C)N(C)C(=O)CN(C)C(=O)[C@H]([C@@H](C)O)NC(=O)[C@H](Cc2ccccc2)N(C)C(=O)[C@H](CC(C)C)N(C)C(=O)[C@H](C(C)C)NC(=O)[C@H]([C@@H](C)CC)N(C)C1=O [pd148] (cyclo(A[NMeA][NMeL]I[NMeI]V[NMeL][NMeF]T[Sar][NMeA][NMeL][NMedβ3hAla]))	25.2 µL/min/mg	16.8 µL/min/mg Protein	0.12 10^-6 cm/sec	0.12 ×10⁻⁶ cm/s			
CC[C@@H]1NC(=O)[C@H](Cc2ccccc2)N(C)C(=O)[C@@H]2CCCN2C(=O)[C@H](CC(C)C)N(C)C(=O)[C@H](C(C)C)NC(=O)[C@H](CC(C)C)N(C)C(=O)[C@H]([C@@H](C)O)NC(=O)[C@H](Cc2ccccc2)N(C)C(=O)CN(C)C(=O)C[C@@H](C)N(C)C(=O)[C@H](C(C)C)NC(=O)[C@H](CC)N(C)C(=O)[C@H](C)N(C)C1=O [pd149] (cyclo([Abu][NMeA][NMeAbu]V[NMedβ3hAla][Sar][NMeF]T[NMeL]V[NMeL]P[NMeF]))	10.8 µL/min/mg	1.5 µL/min/mg Protein	0.20 10^-6 cm/sec	0.2 ×10⁻⁶ cm/s			
CC[C@H]1C(=O)N(C)[C@H](C)CC(=O)N(C)[C@H](C)C(=O)N(C)[C@@H](C)C(=O)N(C)[C@@H](Cc2ccccc2)C(=O)N[C@@H](C(C)C)C(=O)N(C)[C@@H](CC(C)C)C(=O)N(C)[C@@H]([C@@H](C)O)C(=O)N(C)CC(=O)N[C@@H](C)C(=O)N(C)[C@@H](CC(C)C)C(=O)N[C@@H](COC(C)(C)C)C(=O)N(C)[C@@H](Cc2ccccc2)C(=O)N1C [pd150] (cyclo(A[NMeL]S(tBu)[NMeF][NMeAbu][NMedβ3hAla][dNMeA][NMeA][NMeF]V[NMeL][NMeT][Sar]))	15.2 µL/min/mg	4.2 µL/min/mg Protein	0.29 10^-6 cm/sec	0.29 ×10⁻⁶ cm/s			
CC[C@H](C)[C@@H]1NC(=O)[C@H]([C@@H](C)CC)N(C)C(=O)[C@@H](C)NC(=O)C[C@@H](C(=O)N2CCCCC2)N(C)C(=O)[C@H](C(C)C)NC(=O)[C@H](Cc2ccccc2)N(C)C(=O)[C@H](COC(C)(C)C)NC(=O)[C@H](CC(C)C)N(C)C(=O)[C@H](C)NC(=O)CN(C)C(=O)[C@H](CC(C)C)N(C)C(=O)[C@H](C)N(C)C(=O)[C@H](Cc2ccccc2)N(C)C1=O [pd151] ([dA][NMeI]I[NMeF][NMeA][NMeL][Sar]A[NMeL]S(tBu)[NMeF]V[NMeD]-Piperidide; lactam N-13)	29.6 µL/min/mg	22.4 µL/min/mg Protein	0.39 10^-6 cm/sec	0.39 ×10⁻⁶ cm/s			
